Target: Nitric oxide synthase, brain (Sus scrofa)
Assay: Inhibitory activity against Nitric oxide synthase (derived from porcine brain cerebellum)

Which IC50 does the source give for `Nc1nc(N)c2nc(COc3ccccc3)cnc2n1` [6-Phenoxymethyl-pteridine-2,4-diamine] here?
The IC50 was 180 µM.
